From US11932621B1, “2-[9-(2-hydroxypyridin-3-yl)-1,8-dioxo-1,2,3,4,5-6,7,8,9,10-decahydroacridin-10-yl]-acetate as an antimicrobial compound” (KING FAISAL UNIVERSITY, priority 2023, dated 2024)

Experiments:
Type in all cases: cell-based
Details in all cases: after 10, 20, 40 and 60 minutes at all dilutions 1:100, 1:200, 1:400, 1:800
Staphylococcus aureus = experiment: Antimicrobial screening by agar dilution, Staphylococcus aureus
Procedure: (§1) The antibacterial properties of the synthesized compound 2-[9-(2-hydroxypyridin-3-yl)-1,8-dioxo-1,2,3,4,5,-6,7,8,9,10-decahydroacridin-10-yl]-acetate were studied by the method of agar dilution. Test solutions of each compound was prepared in concentration of 1% using dimethylformamide as a solvent then they are diluted in physiological solution to obtain the final experimental dilutions 1:100, 1:200, 1:400, 1:800. The effect of these substances are compared with furacillin in a controllable study. The testing microbes used were gram positive bacteria Staphylococcus aureus, gram negative bacteria Pseudomonas aeruginosa and Escherichia coli and Candida albicans fungus. The experiments used for this survey were meat-pentonlu agar (EPA) for cultivation of bacteria and Saburo environment for the fungus. Each experiment used 1 mL of test solution on each plate […]. Two drops of emulsified with microbes feel were added. All experimental samples were taken from the agar after 10, 20, 40, 60 minutes in the environment on the basis of Patrk planted. The bacteria were cultivated at a temperature of 37° C. for 1 day and the mushroom was kept in a thermostat for […] at a temperature of 28° C. Then results were checked.

Candida albicans = experiment: Antimicrobial screening by agar dilution, Candida albicans
Procedure: as §1

Pseudomonas aeruginosa = experiment: Antimicrobial screening by agar dilution, Pseudomonas aeruginosa
Procedure: as §1

Escherichia coli = experiment: Antimicrobial screening by agar dilution, Escherichia coli
Procedure: as §1

Measured: inhibition activity

CCOC(=O)CN1C2=C(C(=O)CCC2)C(c2cccnc2O)C2=C1CCCC2=O [2-[9-(2-hydroxypyridin-3-yl)-1,8-dioxo-1,2,3,4,5,-6,7,8,9,10-decahydroacridin-10-yl]-acetate]
highest inhibition activity: Staphylococcus aureus | Candida albicans | Pseudomonas aeruginosa | Escherichia coli
